Measurements taken from patent US20050063989A1, “Ion channel hybrid proteins as electrical sensors and use thereof” (COMMISSARIAT A L'ENERGIE ATOMIQUE, priority 2003, published 2005).

Experiments:
SUR2A-Kir6.2 channels = biological target: T1, SUR2A-Kir6.2 channels (Rattus norvegicus, UniProt Q63563); test: Inside-out patch-clamp of SUR2A-Kir6.2 fusion channels expressed in Xenopus oocytes; format: cell-based, mouse Kir6.2; details: for Effect of K-channel opener on SUR2A-Kir6.2 channels: opener 10 μM, in the presence of partially-inhibiting ATP (100 μM), -50 mV
T1 construct: expressed in transfected cells; host or cells: Xenopus laevis oocytes injected with in vitro transcribed mRNA; excised inside-out patches
T1 sequence (Q63563 with tags, fused parts or gaps): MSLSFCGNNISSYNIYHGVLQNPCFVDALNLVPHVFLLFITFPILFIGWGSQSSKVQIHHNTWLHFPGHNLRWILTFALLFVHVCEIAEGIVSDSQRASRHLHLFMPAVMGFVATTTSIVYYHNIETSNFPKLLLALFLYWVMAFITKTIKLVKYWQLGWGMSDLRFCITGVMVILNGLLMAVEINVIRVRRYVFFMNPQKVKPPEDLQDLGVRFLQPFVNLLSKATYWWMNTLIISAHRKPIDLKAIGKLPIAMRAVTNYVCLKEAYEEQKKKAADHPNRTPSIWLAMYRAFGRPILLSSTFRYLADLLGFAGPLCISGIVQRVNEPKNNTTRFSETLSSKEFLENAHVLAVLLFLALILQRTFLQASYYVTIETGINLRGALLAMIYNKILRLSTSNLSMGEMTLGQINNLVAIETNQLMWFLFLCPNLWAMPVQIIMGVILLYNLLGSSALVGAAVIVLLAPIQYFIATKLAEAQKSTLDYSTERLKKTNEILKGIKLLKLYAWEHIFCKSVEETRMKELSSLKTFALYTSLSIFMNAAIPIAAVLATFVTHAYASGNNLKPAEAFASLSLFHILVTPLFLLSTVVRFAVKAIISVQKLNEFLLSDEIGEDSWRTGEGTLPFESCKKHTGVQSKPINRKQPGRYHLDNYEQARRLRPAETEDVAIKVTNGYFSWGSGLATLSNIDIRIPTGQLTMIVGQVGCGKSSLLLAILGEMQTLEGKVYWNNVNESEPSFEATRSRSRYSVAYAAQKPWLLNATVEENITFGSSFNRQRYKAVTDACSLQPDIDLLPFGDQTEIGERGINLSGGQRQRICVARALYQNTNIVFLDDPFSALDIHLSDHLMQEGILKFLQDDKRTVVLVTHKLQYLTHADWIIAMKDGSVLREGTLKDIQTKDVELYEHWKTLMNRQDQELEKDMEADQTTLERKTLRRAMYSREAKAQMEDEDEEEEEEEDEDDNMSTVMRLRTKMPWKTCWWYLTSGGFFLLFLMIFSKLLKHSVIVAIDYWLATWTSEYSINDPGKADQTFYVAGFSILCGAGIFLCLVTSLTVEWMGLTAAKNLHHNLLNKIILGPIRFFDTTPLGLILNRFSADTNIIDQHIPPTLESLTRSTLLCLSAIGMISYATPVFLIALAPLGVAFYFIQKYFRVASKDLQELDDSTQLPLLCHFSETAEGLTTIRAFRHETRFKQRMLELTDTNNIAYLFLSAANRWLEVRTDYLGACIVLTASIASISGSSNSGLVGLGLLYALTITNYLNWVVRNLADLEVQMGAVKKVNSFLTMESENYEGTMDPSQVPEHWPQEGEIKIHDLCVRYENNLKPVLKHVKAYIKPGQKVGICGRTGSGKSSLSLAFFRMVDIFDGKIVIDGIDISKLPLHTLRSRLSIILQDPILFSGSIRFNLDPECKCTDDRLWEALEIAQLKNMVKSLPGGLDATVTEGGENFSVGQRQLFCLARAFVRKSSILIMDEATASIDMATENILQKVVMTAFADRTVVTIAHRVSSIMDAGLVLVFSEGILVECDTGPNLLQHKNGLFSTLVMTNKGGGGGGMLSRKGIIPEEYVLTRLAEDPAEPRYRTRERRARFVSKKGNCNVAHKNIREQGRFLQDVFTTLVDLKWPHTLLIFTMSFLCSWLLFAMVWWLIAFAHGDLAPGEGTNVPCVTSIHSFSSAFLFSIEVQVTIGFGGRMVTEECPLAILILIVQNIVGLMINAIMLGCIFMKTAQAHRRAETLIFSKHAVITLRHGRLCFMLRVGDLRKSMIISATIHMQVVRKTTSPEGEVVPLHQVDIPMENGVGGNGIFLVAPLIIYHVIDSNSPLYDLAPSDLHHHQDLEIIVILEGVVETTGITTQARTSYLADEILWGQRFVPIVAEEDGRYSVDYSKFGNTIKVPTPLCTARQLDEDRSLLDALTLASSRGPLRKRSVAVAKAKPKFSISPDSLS
Experimental: (§1) mRNAs coding Kir6.2 (˜2 ng) and wild-type SURs (˜6 ng) or mRNAs coding the fusion constructs (˜8 ng) were co-injected into defoliculated Xenopus laevis oocytes. Injected oocytes were stored at 19° C. in Barth's solution (in mM: 1 KCl, 0.82 MgSO4, 88 NaCl, 2.4 NaHCO3, 0.41 CaCl2, 0.3 Ca(NO3)2, 16 HEPES, pH 7.4) with 100 U/ml penicillin, 100 μg/ml streptomycin, and 100 μg/ml gentamycin.
(§2) Two to 15 days after injection, oocytes were devitellinized and recombinant KATP channels were characterized by the patch-clamp technique in the excised inside-out configuration (Hamill et al., Arch. Eur. J. Physiol., 1981, 391, 85-100). Patch pipettes (2-10 MΩ) contained 154 mM K^+, 146 mM Cl^−, 5 MM Mg^2+, and 10 mM PIPES (pH 7.1). The cytoplasmic face of the patch was bathed in solutions which all contained 174 mM K^+, 40 mM Cl^−, 1 mM EGTA, 1 Mg^2+, 10 mM PIPES (pH 7.1), and methanesulfonate (approximately, 160 mM, depending on the ATP and ADP amounts added—as the remaining anions. ATP and ADP (potassium salt; Sigma), SR47063 (20 mM stock in DMSO; Sanofi Recherche), diazoxide (100 mM stock in DMSO; Sigma) and P1075 (20 mM stock in DMSO; Leo Pharmaceutical Products) were added as specified. The membrane potential was maintained at −50 mV. Experiments were conducted at room temperature (22-24° C.).
(§3) Applications of the various solutions to the intracellular face of the patch was performed using a RSC-100 rapid-solution-changer (Bio-Logic). Analog signals were filtered at 300 Hz and sampled at 1 kHz. Slow fluctuations of the no-channel-open baseline of the signal were removed by interactive fitting of the baseline with a spline curve and subtraction of this fit from the signal. Acquisition, analysis, and presentation were performed with in-house software.

SUR1-Kir6.2 channels = biological target: T2, SUR1-Kir6.2 channels (UniProt Q09427+Q61743); test: Inside-out patch-clamp of SUR1-Kir6.2 fusion channels expressed in Xenopus oocytes; format: cell-based, hamster SUR1, mouse Kir6.2
T2 construct: expressed in transfected cells; host or cells: Xenopus laevis oocytes injected with in vitro transcribed mRNA; excised inside-out patches
T2 sequence (Q09427+Q61743 fused): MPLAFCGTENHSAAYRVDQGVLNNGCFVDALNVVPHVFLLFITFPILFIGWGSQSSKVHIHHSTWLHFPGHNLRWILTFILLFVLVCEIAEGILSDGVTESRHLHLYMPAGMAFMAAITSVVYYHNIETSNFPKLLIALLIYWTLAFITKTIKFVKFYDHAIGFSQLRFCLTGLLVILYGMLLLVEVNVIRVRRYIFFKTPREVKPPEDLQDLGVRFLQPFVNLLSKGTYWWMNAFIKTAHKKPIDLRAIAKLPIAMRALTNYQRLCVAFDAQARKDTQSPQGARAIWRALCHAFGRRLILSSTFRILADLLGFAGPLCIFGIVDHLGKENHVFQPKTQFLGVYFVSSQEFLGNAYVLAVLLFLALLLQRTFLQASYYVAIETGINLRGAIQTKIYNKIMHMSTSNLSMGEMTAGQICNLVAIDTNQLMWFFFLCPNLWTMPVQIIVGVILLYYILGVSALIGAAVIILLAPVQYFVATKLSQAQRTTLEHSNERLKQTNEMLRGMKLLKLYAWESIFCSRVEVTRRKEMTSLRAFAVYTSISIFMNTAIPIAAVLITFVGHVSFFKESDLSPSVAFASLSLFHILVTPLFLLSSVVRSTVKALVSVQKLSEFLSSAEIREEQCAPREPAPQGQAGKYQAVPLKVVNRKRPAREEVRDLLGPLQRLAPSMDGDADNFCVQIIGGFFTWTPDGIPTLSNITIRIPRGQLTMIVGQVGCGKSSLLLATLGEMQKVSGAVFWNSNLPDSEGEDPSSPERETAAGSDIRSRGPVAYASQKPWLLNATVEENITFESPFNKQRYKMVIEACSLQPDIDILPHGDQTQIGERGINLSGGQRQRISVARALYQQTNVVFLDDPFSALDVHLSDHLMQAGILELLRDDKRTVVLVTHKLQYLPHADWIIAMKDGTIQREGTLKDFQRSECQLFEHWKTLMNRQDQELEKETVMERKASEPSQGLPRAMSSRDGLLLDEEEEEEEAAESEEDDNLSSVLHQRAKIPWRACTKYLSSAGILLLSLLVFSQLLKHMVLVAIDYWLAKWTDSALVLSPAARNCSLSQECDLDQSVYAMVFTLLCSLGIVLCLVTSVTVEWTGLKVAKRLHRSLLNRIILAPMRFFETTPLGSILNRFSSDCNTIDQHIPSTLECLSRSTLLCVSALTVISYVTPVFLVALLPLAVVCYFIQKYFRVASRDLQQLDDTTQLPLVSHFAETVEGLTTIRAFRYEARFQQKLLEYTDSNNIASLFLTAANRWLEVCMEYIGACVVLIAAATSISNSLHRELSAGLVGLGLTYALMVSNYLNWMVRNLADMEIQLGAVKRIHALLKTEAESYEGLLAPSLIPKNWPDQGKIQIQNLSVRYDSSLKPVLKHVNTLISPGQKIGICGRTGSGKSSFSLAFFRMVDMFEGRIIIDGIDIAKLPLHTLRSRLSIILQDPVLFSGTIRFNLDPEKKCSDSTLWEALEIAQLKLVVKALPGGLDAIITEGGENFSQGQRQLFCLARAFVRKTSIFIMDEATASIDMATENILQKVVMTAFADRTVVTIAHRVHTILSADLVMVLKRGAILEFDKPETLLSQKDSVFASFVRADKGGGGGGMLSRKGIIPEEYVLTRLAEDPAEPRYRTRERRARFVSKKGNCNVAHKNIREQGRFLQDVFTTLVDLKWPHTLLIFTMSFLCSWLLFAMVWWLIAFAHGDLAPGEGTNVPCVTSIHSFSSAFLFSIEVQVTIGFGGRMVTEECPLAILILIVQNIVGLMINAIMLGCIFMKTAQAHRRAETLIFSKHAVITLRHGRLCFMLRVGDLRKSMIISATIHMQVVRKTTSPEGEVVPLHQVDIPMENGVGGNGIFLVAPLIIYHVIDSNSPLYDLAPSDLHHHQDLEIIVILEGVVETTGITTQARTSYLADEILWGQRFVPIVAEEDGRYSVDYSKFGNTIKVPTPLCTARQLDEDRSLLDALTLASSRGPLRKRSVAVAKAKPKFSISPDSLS
Experimental: as §1, §2, §3

Xenopus oocytes = test: Density of active fusion channels: ATP-inhibitable current after patch excision; format: cell-based, Xenopus laevis
Experimental: as §1, §2, §3

MRP1-Kir6.2 channels = biological target: T3, MRP1-Kir6.2 channels (Homo sapiens, UniProt P33527, M117T); test: Inside-out patch-clamp of MRP1-Kir6.2 fusion channels expressed in Xenopus oocytes; format: cell-based, mouse Kir6.2
T3 construct: expressed in transfected cells; host or cells: Xenopus laevis oocytes injected with in vitro transcribed mRNA; excised inside-out patches
Experimental: as §1
as §2, with “C.). […]” for “C.).”

Kir6.2ΔC36 channels = biological target: T4, Kir6.2ΔC36 channels (Mus musculus, UniProt Q61743); test: Inside-out patch-clamp of Kir6.2ΔC36 channels expressed alone in Xenopus oocytes; format: cell-based
T4 construct: expressed in transfected cells; host or cells: Xenopus laevis oocytes; excised inside-out patches
T4 sequence (Q61743 1-354 limits assumed): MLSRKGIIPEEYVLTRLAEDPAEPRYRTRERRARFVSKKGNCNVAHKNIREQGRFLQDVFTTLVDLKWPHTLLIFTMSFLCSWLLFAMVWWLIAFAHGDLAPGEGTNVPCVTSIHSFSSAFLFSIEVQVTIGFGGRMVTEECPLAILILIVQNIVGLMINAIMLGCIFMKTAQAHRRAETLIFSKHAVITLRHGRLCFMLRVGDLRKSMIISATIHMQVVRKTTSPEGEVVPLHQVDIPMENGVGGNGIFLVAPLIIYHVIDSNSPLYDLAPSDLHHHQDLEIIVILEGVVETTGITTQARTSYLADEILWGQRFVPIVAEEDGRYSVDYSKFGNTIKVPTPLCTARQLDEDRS
Excerpt: (§4) Removal of the RKR endoplasmic reticulum retention signal of Kir6.2 was accomplished either by deletion of the last 26 or 36 residues of the C-terminal extremity (Tucker et al., Nature, 1997, 387: 179-183) through introduction of a premature stop codon at the correct position, or by site-directed mutagenesis of RKR to RAA (i.e., K370A and R371A). The resulting constructs, named Kir6.2Δ26, Kir6.2ΔC36, and Kir6.2KR370AA, were created by mutagenesis amplification (QuickChange site-directed mutagenesis kit, Stratagene). The sequences corresponding to the different constructs are as presented in Table 1: SUR2A-Kir6.2ΔC36 (SEQ ID NO: 3), MRP1-Kir6.2ΔC36 (SEQ ID NO: 4), YCF1-Kir6.2ΔC36 (SEQ ID NO: 5) and MRP1-Kir6.2[KR370AA] (SEQ ID NO: 6).
as §1
(§5) Two to 15 days after injection, oocytes were devitellinized and recombinant KATP channels were characterized by the patch-clamp technique in the excised inside-out configuration (Hamill et al., Arch. Eur. J. Physiol., 1981, 391, 85-100). […]

MRP1-Kir6.2KR370AA = test: Inside-out patch-clamp of MRP1-Kir6.2KR370AA channels expressed in Xenopus oocytes; format: cell-based, human MRP1, mouse Kir6.2; details: compared with MRP1-Kir6.2
Excerpt: as §4, §1, §5

YCF1-Kir6.2ΔC36 = biological target: T5, YCF1-Kir6.2ΔC36 (UniProt P39109+Q61743); test: Inside-out patch-clamp of YCF1-Kir6.2ΔC36 channels expressed in Xenopus oocytes; format: cell-based, yeast YCF1, mouse Kir6.2
T5 construct: expressed in transfected cells; host or cells: Xenopus laevis oocytes injected with in vitro transcribed mRNA; excised inside-out patches
Excerpt: as §4, §1, §5

[1] = total current blocked by 2 mM ATP after patch excision
[2] = ADP at submillimolar concentrations

**Q.** How did the “Effect of K-channel opener on SUR2A-Kir6.2 channels” value (SUR2A-Kir6.2 channels) turn out when `CC1(C)C=C(n2ccccc2=NC#N)c2cc([N+](=O)[O-])ccc2O1` [SR47063] was run?
**A.** Its value is “activated”.

**Q.** How did the “Effect of opener on SUR1-Kir6.2 channels” value (SUR1-Kir6.2 channels; diazoxide 300 μM) turn out when `CC1=NS(=O)(=O)c2cc(Cl)ccc2N1` [diazoxide] was run?
**A.** The value was “activated”.

**Q.** How did the “ATP-inhibitable current of the construct after patch excision” value (Xenopus oocytes) turn out when “YCF1-Kir6.2ΔC36: YCF1-Kir6.2 fusion with last 36 residues truncated to remove the RKR signal” was run?
**A.** Its value is “noticeably small compared to the other constructs”.

**Q.** “MRP1-Kir6.2: fusion of human MRP1 C-terminus to mouse Kir6.2 N-terminus with hexaglycine spacer” was tested. Which “Patch current, fold lower than SUR1-Kir6.2” value (Xenopus oocytes; [1]) did it give?
**A.** Its value is 7 fold.

**Q.** What about the “Patch current, fold lower than SUR2A-Kir6.2” value (Xenopus oocytes; [1]) of the same compound?
**A.** The value was 5 fold.

**Q.** Which results are given for `Nc1ncnc2c1ncn2[C@@H]1O[C@H](COP(=O)(O)OP(=O)(O)O)[C@@H](O)[C@H]1O` [ADP]?
**A.** Effect of ADP on SUR2A-Kir6.2 fusion channels (SUR2A-Kir6.2 channels; [2]): activation; Effect of ADP on SUR1-Kir6.2 fusion channels (SUR1-Kir6.2 channels; [2]): activation; Effect of ADP on MRP1-Kir6.2 currents (MRP1-Kir6.2 channels; ADP 100 μM and 300 μM, in the presence of 100 μM ATP): reduced in a dose-dependent manner; Effect of ADP on Kir6.2ΔC36 (SUR-less) channels (Kir6.2ΔC36 channels): inhibited; Sensitivity of MRP1-Kir6.2KR370AA to ADP (MRP1-Kir6.2KR370AA): could not be distinguished from the non-mutated MRP1-Kir6.2 protein

**Q.** With `CCC(C)(C)N=C(NC#N)Nc1cccnc1` [P1075] as the compound, how does the “Effect of K-channel opener on SUR2A-Kir6.2 channels” value (SUR2A-Kir6.2 channels) read?
**A.** Its value is “activated”.

**Q.** What does the source list for `Nc1ncnc2c1ncn2[C@@H]1O[C@H](COP(=O)(O)OP(=O)(O)OP(=O)(O)O)[C@@H](O)[C@H]1O` [ATP]?
**A.** Sensitivity of SUR2A-Kir6.2 channels to ATP (SUR2A-Kir6.2 channels): high sensitivity; Sensitivity of SUR1-Kir6.2 channels to ATP (SUR1-Kir6.2 channels): high sensitivity; Sensitivity of MRP1-Kir6.2 channels to inhibition by ATP (MRP1-Kir6.2 channels): less sensitive to inhibition by ATP than either SUR-Kir6.2 fusions or wild-type channels; Sensitivity of MRP1-Kir6.2KR370AA to ATP (MRP1-Kir6.2KR370AA): could not be distinguished from the non-mutated MRP1-Kir6.2 protein; Effect of ATP on YCF1-Kir6.2ΔC36 currents (YCF1-Kir6.2ΔC36): ATP-sensitive currents

**Q.** How did the “ATP-inhibitable current of the construct after patch excision” value (Xenopus oocytes) turn out when “YCF1-Kir6.2: fusion of yeast YCF1 with mouse Kir6.2, hexaglycine spacer” was run?
**A.** The value was “no detectable exogenous current”.
